What all share (format): in vivo
For data set [1], the system named is mouse lung tumor line M (Madison) 109. In words: Taxoprexin and paclitaxel against M 109 lung carcinoma in mice, treatment from day 4 (tumor about 30 mg). As to conditions: days 4 through 8, tumor about 30 mg at start. As for the experimental part:
Syngeneic mice were injected with mouse lung tumor line M (Madison) 109 sub-cutaneously in the flank. […] Both drugs were dissolved in 10% cremophor EL/10% ethanol/80% saline. Tumor volume was estimated from tumor width and length. […] (FIG. 1)

For data set [2] the test system is unchanged. In words: Taxoprexin and paclitaxel against M 109 lung carcinoma in mice, treatment from day 5 (tumors 300 mg). As to conditions: tumors 300 mg at start. As for the experimental part:
Syngeneic mice were injected with mouse lung tumor line M (Madison) 109 sub-cutaneously in the flank. […] Both drugs were dissolved in 10% cremophor EL/10% ethanol/80% saline. Tumor volume was estimated from tumor width and length. […] (FIG. 2)

Data set [3] concerns human NCI-H522 lung tumor. Briefly: Response of human NCI-H522 lung tumor in nude mice. As to conditions: day 15 to 19 after implantation. As for the experimental part:
The tumors were implanted sub-cutaneously. Tumor mass was determined by calculation from tumor length and width. The drugs were dissolved in 12.5% cremophor EL/12.5% ethanol/75% saline and delivered i.v. into the tail vein, once a day for 5 days, from day 15 to 19 after tumor implantation. […] (FIG. 3)

A short description of data set [4]: Plasma and tumor concentrations of paclitaxel in mice bearing M 109 or M 5076 tumors. As to conditions: for time for which levels of paclitaxel in tumors remain stable: tumors treated with the named drug. How it is done: The drug was dissolved in 10% cremophor EL/10% ethanol/80% saline. Mice were sacrificed and tumors immediately excised as a function of time after injecting the drug. Tumor tissue was homogenized and paclitaxel extracted. […] Blood was collected at the same time intervals and the amount of paclitaxel determined. […] Each data point is the mean of three measurements (n=3); the error bar is one standard deviation.

For the next data set, the system named is human HCT colon tumor. Briefly: Cure of human HCT colon tumor in mice. As to conditions: HCT is a paclitaxel resistant tumor.
The nature of data set [5]: Dose comparisons (MTD) of taxoprexin and paclitaxel in various species. As to conditions: mice, rats and dogs.
Source text: Calculation of MTD in animals may be based on a number of physiological parameters, such as death, particular toxicities, drug induced weight loss. Using death as an endpoint, the MTD may be the dose given test animals in which each member of the test group survived. Using toxicity as an endpoint, the MTD may be the dose at which moderate but not severe toxicity is observed. Using weight loss as an endpoint, the MTD may be the dose above which a certain percent change in body weight is induced.
[6] abbreviates: paclitaxel 20 mg/kg/day x 5 days i.v. bolus from day 5.

With `CC(=O)O[C@H]1C(=O)[C@@]2(C)[C@H]([C@H](OC(=O)c3ccccc3)[C@]3(O)C[C@H](OC(=O)[C@H](O)[C@@H](NC(=O)c4ccccc4)c4ccccc4)C(C)=C1C3(C)C)[C@]1(OC(C)=O)CO[C@@H]1C[C@@H]2O` [paclitaxel, reference compound], the “retarded tumor growth (duration)” value in data set [1] (paclitaxel 20 mg/kg/day x 5 days i.v. bolus) was “about four days”. Further, in data set [2] (setting [6]), the LCK is given as 1.0 and the “retarded tumor growth (duration)” value is “about four days”. Also, the “mice with all measurable tumors eliminated” value in data set [3] (20 mg/kg/day x 5 days i.v.) is 10/10. For the same compound, the t½ in tumor in data set [4] (paclitaxel in the same tumor system) was under 8 h. For the same compound, the “time for which levels of paclitaxel in tumors remain stable” value in data set [4] is “less than 8 hours”. Also, the “mice cured of tumor” value with human HCT colon tumor is given as 0/8.

As to `CC/C=C\C/C=C\C/C=C\C/C=C\C/C=C\C/C=C\CCC(=O)O[C@@H](C(=O)O[C@H]1C[C@@]2(O)[C@@H](OC(=O)c3ccccc3)[C@@H]3[C@]4(OC(C)=O)CO[C@@H]4C[C@H](O)[C@@]3(C)C(=O)[C@H](OC(C)=O)C(=C1C)C2(C)C)[C@@H](NC(=O)c1ccccc1)c1ccccc1` [taxoprexin], the “mice with all measurable tumors completely eliminated” value in data set [1] (taxoprexin 120 mg/kg/day x 5 days i.v. bolus) is “eight out of eight”; in data set [2] (taxoprexin 80 mg/kg/day x 5 days i.v. bolus from day 5) it was “four out of seven”. Also, the “mice with all measurable tumors completely eliminated (C/T)” value in data set [2] (taxoprexin 120 mg/kg/day x 5 days i.v. bolus from day 5) was 7/8. For the same compound, the “mice with all measurable tumors eliminated” value in data set [3] (50 mg/kg/day x 5 days i.v.) is 10/10. In addition, the “plasma concentration of paclitaxel derived from taxoprexin” value in data set [4] (after 24 hours, i.v. bolus 50 mg/kg taxoprexin) worked out at 70 nM. In addition, the “tumor concentration of paclitaxel derived from taxoprexin” value in data set [4] (after 24 hours, i.v. bolus 50 mg/kg taxoprexin, M109 or M5076 tumors) is “about 3 μM”. Besides, the “time for which levels of paclitaxel in tumors remain stable” value in data set [4] was 24 h. The “toxicity compared with paclitaxel” value in data set [5] is “less toxic”. Moreover, the “mice cured of tumor” value in the data set with human HCT colon tumor is reported as 3/8.

Values taken from patent US7235583B1, “Fatty acid-anticancer conjugates and uses thereof” (Luitpold Pharmaceuticals, Inc.,, priority 1999, dated 2007).
